Laboratory results reported in publication PMC8039949, “A novel small-molecule PROTAC selectively promotes tau clearance to improve cognitive functions in Alzheimer-like models” (Theranostics, 2021).

Experiments:
[1] = test system: tau; assay: Tau clearance in SH-SY5Y cells by Western blotting; format: cell-based, human
Procedure: SH-SY5Y human neuroblastoma cells were cultured in 90% DME/F-12 medium (HyClone, SH30023.01) with 10% fetal bovine serum (FBS) (Biological Industries, 04-001-1ACS) and penicillin (100 U/mL)/ streptomycin (100 μg/mL) in a 37 °C incubator with humidified atmosphere of 5% CO2. Human embryonic kidney 293 cells (HEK293) or HEK293 with stable expression of wild-type full-length human tau (termed as HEK293-hTau) were cultured in 90% DMEM/High Glucose medium (HyClone, SH30022.01) containing 10% FBS and 200 μg/mL G418 (ThermoFisher Scientific, 10131027), in a humidified atmosphere of 5% CO2 at 37 °C. Neofect (DNA transfection reagent, TF20121201) was used for plasmids transfection. The cells were placed onto 6-well or 12-well plates. Plasmids (EGFP-hTau or 3xFlag-hTau or the vector), neofect and Opti-MEM medium (Gibco, 31985-070) were made into a mixture in a ratio of 1 μg: 1 μL : 100 μL and then added into each well of the plate. To inhibit proteasome activity, HEK293-hTau cells were cultured with DMEM/High medium containing 20 μM C004019 with or without 10 μM MG132, or the same volume of vehicle (DMSO) for 24 h at 37 °C. To induce tau hyperphosphorylation, SH-SY5Y cells were cultured with DME/F-12 medium containing 10 μM C004019 with or without 1 μM GFX and 1 μM WO for 24 h at 37 °C.
The cells or hippocampal/cortex tissues were homogenized for ~ 30 min on ice in buffer [50 mM Tris·HCl pH 7.4-7.5, 100 mM NaCl, 1% (vol/vol) Triton X-100, 5 mM EDTA, 1:100 PMSF, 1:1,000 protease inhibitor cocktail containing 4-(2-Aminoethyl)-benzenesulfonyl fluoride hydrochloride, aprotinin, bestatin, leupeptin, E-64, and pepstatin A stored at 4 °C], and then centrifuged at 12,000 × g at 4 °C for 20 min. The supernatant was collected and the protein levels were analyzed using bicinchoninic acid (BCA, KF016, Sigma-Aldrich) by following the manufacturer's instruction (served as soluble protein). The pellet was further incubated with 8% (wt/vol) SDS buffer at 4 °C and then treated by ultrasonic wave to reach a complete resuspension. […] Immunoreactive bands were quantitatively analyzed by Image J2x software.

[2] = test system: 3xTg-AD mice; assay: Multiple-doses subcutaneous administration in 3xTg-AD mice, behavior and synaptic function; format: in vivo, mouse; conditions: 9.5 m-old 3xTg-AD mice, subcutaneous 3 mg/kg every 6 days, 5 times
Procedure: The Open field (OF) test was consisted of a 5 min session in a quadrate chamber (white opaque plastic). The chamber was divided into 16 square regions, a central field (center 4 square regions) and a periphery field. Each mouse was placed in the same position at the start of the test. Behaviors were recorded and analyzed by the video tracking system (Chengdu Taimeng Software Co., Ltd, China).
For novel object recognition (NOR) test, the mice were habituated to a quadrate chamber (white opaque plastic) for 5 min without objects 24 h prior to the test. The chamber was cleaned with 75% ethanol between each habituation period. The day after the mice re-entered the chamber from the same starting point and were given 10 min to familiarize themselves with the object A and object B. After each period the chamber and objects were cleaned with 75% ethanol. The next day after the familiarization period, object B was replaced with noval object C, and the mice were given 10 min to explore both objects. The exploring time in object A (TA) and C (TC) was recorded using the video tracking system. The discrimination index was calculated by (TC-TA)/(TA+TC).
The Elevated plus maze (EPM) test was performed as follows: mice were placed at the junction of the four arms of the maze (white opaque plastic), and started the test from facing an open arm. The chambers were cleaned with 75% ethanol before the next mouse was trained. The entries and duration time in each arm were recorded for 5 min by the video tracking system (Chengdu Taimeng Software Co., Ltd, China). An increase in open arm activity (duration and/or entries) reflects anti-anxiety behavior.
The Morris water maze (MWM) test was conducted to assess the spatial learning and memory. The maze was filled with water and divided into 4 quadrants with a platform placed in one quadrant. The mice were trained to find the hidden platform for 6 consecutive days, and underwent […] training trials (once per quadrant) per day from 14:00 to 20:00 pm. In each training trial, the mouse started from one of four quadrants facing the wall of the pool and the trial ended when the animal climbed on the platform. […] The spatial memory was tested 1 d after the last training by removed the platform. The longer a mouse stayed in the previous platform-located quadrant, the better it scored the spatial memory. A video camera, fixed to the ceiling 1.5 m from the water surface, was used to record the swimming path and the time for mice to find the platform (latency) or to pass through the previous platform-located quadrant each day. The camera was connected to a digital-tracking device attached to an IBM computer (Armonk, NY).
For fear conditioning (FC) test, the mice were placed into a square chamber with a grid floor. On the first day (day 1), each mouse was habituated to the chamber for 3 min, and then a foot shock (0.9 mA, 3 s) was delivered. Three sequential foot shocks at 3 min intervals were applied. Then the mice were returned to their home cages. On the next day (day 2), the mice were exposed to the same chamber without any stimulus for 3 min. The contextual conditioning was assessed by recording freezing behavior during the 3 min exposure. Freezing time during the 3 min was recorded for assessment of memory.
Mice used for electrophysiology experiments were deeply anesthetized as described above. When all pedal reflexes were abolished, brains were removed and placed in ice-cold oxygenated slicing solution containing the following: 225 mM sucrose, 3 mM KCl, 1.25 mM NaH2PO4, 24 mM NaHCO3, 6 mM MgSO4, 0.5 mM CaCl2, and 10 mM D-glucose. Coronal slices (300 μm thickness) were cut at 4-5 °C in the slicing solution using a Leica VT1000S vibratome and then transferred to an incubation chamber filled with oxygenated slicing solution in a 30 °C water bath for 1 h before being recorded. […]

SMILES: CC(=O)N1CCCN(c2nc(NCCc3cccs3)nc(N(C)CC(=O)NCCOCCOCCOCC(=O)N[C@H](C(=O)N3C[C@H](O)C[C@H]3C(=O)NCc3ccc(-c4scnc4C)cc3)C(C)(C)C)n2)CC1 [C004019]
- p-tau and total tau levels under induced tau hyperphosphorylation ([1]; 10 μM C004019 with WO (1 μM) plus GFX (1 μM), 24 h): could efficiently decrease p-tau and total tau levels
- phosphorylated tau level ([1]; 20 μM): could decrease phosphorylated tau
- total tau (Tau5) and p-tau level ([1]; Western blotting): concentration-dependent reduction
- FC test, freezing index [2]: restored the freezing index
- NOR test, discrimination index [2]: almost completely restored the memory ability
- motor and anxiety levels (OF and EPM tests) [2]: did not significantly affect the motor and anxiety levels
- MWM test, latency to reach the platform ([2]; 6 days learning trial): shorter latency to reach the platform
- spine density ([2]; Golgi-cox staining): restored spine density
- neurite arborization ([2]; Sholl analysis): didn't have any effect on neurite arborization
- LTP induction (fEPSP amplitude and slope) ([2]; hippocampal slices): restored
